Read-outs that look alike come from different tables or passages of the source.
Legend:
[1] = system: LOX-IMVI; assay: 39-cancer cell panel assay: LOX-IMVI; type: cell-based; conditions: Homo sapiens, Me
[2] = system: HDF cells; assay: Cytotoxicity assay (Cell Counting Kit-8 / WST-8) on HDF cells; type: cell-based; conditions: Homo sapiens
Protocol: (§1) For hypoxia and nutrient-deprived culture conditions, cells were incubated under 1% oxygen in glucose and glutamine-free DMEM (Gibco) without FBS.
(§2) DLD-1 or HDF cells were seeded at 2.5 × 10^4 cells/well on a 96-well plate with normal medium, and cultured overnight under normal culture condition. The cells were washed with PBS and the medium was replaced to either normal medium or glucose and glutamine-free DMEM without FBS. Test compounds or DMSO as a control were added to the wells. The cells in normal medium were cultured under normal culture conditions, while cells in nutrient-deprived medium were cultured under hypoxia condition. After 24 or 48 h incubation, the cells were washed with PBS, 100 μl of fresh normal medium, and 10 μl of Cell Counting Kit-8 solution (Donjindo, Japan) was added to each well. After 3 h incubation under normal culture condition, the absorbance was measured at 450 nm using SpectraMax M2e-TUY microplate reader (Molecular Devices). Cell viability of test wells was calculated based on absorbance of control wells containing DMSO according to manufacturer’s protocol.

[3] = system: MKN1; assay: 39-cancer cell panel assay: MKN1; type: cell-based; conditions: Homo sapiens, MKN-1, St
[4] = system: SNB-78; assay: 39-cancer cell panel assay: SNB-78; type: cell-based; conditions: Homo sapiens, CNS
[5] = system: St-4; assay: 39-cancer cell panel assay: St-4; type: cell-based; conditions: Homo sapiens
[6] = system: SF-268; assay: 39-cancer cell panel assay: SF-268; type: cell-based; conditions: Homo sapiens, CNS
[7] = system: OVCAR-8; assay: 39-cancer cell panel assay: OVCAR-8; type: cell-based; conditions: Homo sapiens, Ov
[8] = system: OVCAR-3; assay: 39-cancer cell panel assay: OVCAR-3; type: cell-based; conditions: Homo sapiens, Ov
[9] = system: HCT-15; assay: 39-cancer cell panel assay: HCT-15; type: cell-based; conditions: Homo sapiens, Co
[10] = target: Complex II–III; assay: Succinate-cytochrome c reductase (complexes II–III) activity, bovine mitochondria; type: biochemical
Protocol: (§3) Recombinant human DHODH was purified, crystallized, and assayed as previously described ([Inaoka et al., 2016]) without modification. Bovine mitochondrial fractions were prepared as previously described ([Kita et al., 1988]) and NADH dehydrogenase (complex I), succinate:quinone reductase (complex II), quinol oxidase (complexes III–IV), NADH-cytochrome c reductase (complexes I–III), and succinate-cytochrome c (complexes II–III) activities were assayed following an established method ([Takamiya et al., 1986]; [Miyadera et al., 2001]; [Matsumoto et al., 2008]; [Kido et al., 2010]; [Nihashi et al., 2017]).

[11] = system: HBC-5; assay: 39-cancer cell panel assay: HBC-5; type: cell-based; conditions: Homo sapiens, HBC5, Br
[12] = system: ACHN; assay: 39-cancer cell panel assay: ACHN; type: cell-based; conditions: Homo sapiens, Re
[13] = system: BSY-1; assay: 39-cancer cell panel assay: BSY-1; type: cell-based; conditions: Homo sapiens, Br
[14] = target: Complexes I–III; assay: NADH-cytochrome c reductase (complexes I–III) activity, bovine mitochondria; type: biochemical
Protocol: as §3

[15] = system: NCI-H226; assay: 39-cancer cell panel assay: NCI-H226; type: cell-based; conditions: Homo sapiens, Lu
[16] = system: HCT-116; assay: 39-cancer cell panel assay: HCT-116; type: cell-based; conditions: Homo sapiens, Co
[17] = system: MKN7; assay: 39-cancer cell panel assay: MKN7; type: cell-based; conditions: Homo sapiens, MKN-7, St
[18] = system: MCF-7; assay: 39-cancer cell panel assay: MCF-7; type: cell-based; conditions: Homo sapiens, MCF7, Br
[19] = target: T1, Complex II (Bos taurus, UniProt P35720+Q3T189+Q95123); assay: Succinate:quinone reductase (complex II) activity, bovine mitochondria; type: biochemical
T1 construct: from tissue; host or cells: bovine mitochondrial fraction / sub-mitochondrial particles
T1 sequence (P31039 45-665 partner limits assumed): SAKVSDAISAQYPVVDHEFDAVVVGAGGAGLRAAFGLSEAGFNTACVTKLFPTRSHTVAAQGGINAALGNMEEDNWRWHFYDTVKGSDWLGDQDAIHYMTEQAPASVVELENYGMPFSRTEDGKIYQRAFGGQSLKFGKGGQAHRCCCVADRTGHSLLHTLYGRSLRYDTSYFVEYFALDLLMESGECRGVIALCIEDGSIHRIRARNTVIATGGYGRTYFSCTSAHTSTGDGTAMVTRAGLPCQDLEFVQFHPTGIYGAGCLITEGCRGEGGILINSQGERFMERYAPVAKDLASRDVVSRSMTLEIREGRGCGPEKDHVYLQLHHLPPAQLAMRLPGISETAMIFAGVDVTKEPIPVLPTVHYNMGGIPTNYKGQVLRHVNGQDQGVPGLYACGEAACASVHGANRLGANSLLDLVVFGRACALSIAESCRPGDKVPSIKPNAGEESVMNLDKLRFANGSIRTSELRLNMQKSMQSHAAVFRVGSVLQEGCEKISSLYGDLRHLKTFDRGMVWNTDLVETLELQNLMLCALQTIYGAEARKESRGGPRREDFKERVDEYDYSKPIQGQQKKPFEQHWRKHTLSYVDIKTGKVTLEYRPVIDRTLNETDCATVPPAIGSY
T1 sequence (Q3T189 29-280): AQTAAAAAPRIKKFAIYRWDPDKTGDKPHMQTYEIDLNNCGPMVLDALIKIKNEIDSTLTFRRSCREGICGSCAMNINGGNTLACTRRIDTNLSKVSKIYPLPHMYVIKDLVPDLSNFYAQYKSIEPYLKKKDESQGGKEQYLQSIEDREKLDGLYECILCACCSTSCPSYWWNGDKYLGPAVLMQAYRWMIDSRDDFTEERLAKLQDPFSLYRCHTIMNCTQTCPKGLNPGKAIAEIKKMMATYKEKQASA
T1 sequence (P35720 30-169): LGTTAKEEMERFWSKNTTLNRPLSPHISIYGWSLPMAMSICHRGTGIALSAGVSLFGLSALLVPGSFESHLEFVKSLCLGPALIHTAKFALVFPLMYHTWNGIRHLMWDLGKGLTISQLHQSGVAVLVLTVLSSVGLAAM
T1 sequence (Q95123 56-158): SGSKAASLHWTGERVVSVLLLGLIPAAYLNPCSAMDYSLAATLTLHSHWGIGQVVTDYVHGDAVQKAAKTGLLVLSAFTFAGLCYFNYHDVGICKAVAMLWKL

[20] = system: RXF-631L; assay: 39-cancer cell panel assay: RXF-631L; type: cell-based; conditions: Homo sapiens, Re
[21] = system: OVCAR-5; assay: 39-cancer cell panel assay: OVCAR-5; type: cell-based; conditions: Homo sapiens, Ov
[22] = system: Complex I; assay: NADH dehydrogenase (complex I) activity, bovine mitochondria; type: biochemical; conditions: at 5 μM
Protocol: as §3

[23] = target: T2, Complex III (Bos taurus, UniProt P00157); assay: Quinol oxidase (complex III) activity, bovine mitochondria; type: biochemical; conditions: ubiquinol oxidase activity
T2 construct: from tissue; host or cells: bovine mitochondrial fraction / sub-mitochondrial particles

[24] = system: HT-29; assay: 39-cancer cell panel assay: HT-29; type: cell-based; conditions: Homo sapiens, Co
[25] = system: NCI-H23; assay: 39-cancer cell panel assay: NCI-H23; type: cell-based; conditions: Homo sapiens, Lu
[26] = system: DLD-1 cells; assay: Cytotoxicity assay (Cell Counting Kit-8 / WST-8) on DLD-1 cells; type: cell-based, human; conditions: for IC50: Homo sapiens
Protocol: as §1, §2

[27] = system: MDA-MB-231; assay: 39-cancer cell panel assay: MDA-MB-231; type: cell-based; conditions: Homo sapiens, Br
[28] = system: DMS273; assay: 39-cancer cell panel assay: DMS273; type: cell-based; conditions: Homo sapiens, DMS-273, Lu
[29] = system: MKN45; assay: 39-cancer cell panel assay: MKN45; type: cell-based; conditions: Homo sapiens, MKN-45, St
[30] = system: KM-12; assay: 39-cancer cell panel assay: KM-12; type: cell-based, human; conditions: Co
[31] = target: T3, human dihydroorotate dehydrogenase (HsDHODH) (Homo sapiens, UniProt Q02127); assay: Inhibition of recombinant human DHODH enzyme activity; type: biochemical; conditions: recombinant human DHODH; purified enzyme fixed at 10 nM; read-out: IC50 (nM), inhibition of human DHODH
T3 construct: made in house
T3 sequence (Q02127 whole entry): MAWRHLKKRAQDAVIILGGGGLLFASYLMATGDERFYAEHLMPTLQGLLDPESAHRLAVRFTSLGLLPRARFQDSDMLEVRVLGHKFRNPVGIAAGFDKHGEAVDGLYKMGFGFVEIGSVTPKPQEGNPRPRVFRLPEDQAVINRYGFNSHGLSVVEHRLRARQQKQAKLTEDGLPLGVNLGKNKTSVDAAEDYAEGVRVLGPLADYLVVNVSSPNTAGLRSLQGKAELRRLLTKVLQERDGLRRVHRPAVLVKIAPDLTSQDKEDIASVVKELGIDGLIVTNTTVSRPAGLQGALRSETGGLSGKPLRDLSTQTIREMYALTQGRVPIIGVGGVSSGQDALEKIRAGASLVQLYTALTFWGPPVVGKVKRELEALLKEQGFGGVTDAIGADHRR

[32] = system: SK-OV-3; assay: 39-cancer cell panel assay: SK-OV-3; type: cell-based; conditions: Homo sapiens
[33] = system: SF-295; assay: 39-cancer cell panel assay: SF-295; type: cell-based; conditions: Homo sapiens, CNS
[34] = system: DMS114; assay: 39-cancer cell panel assay: DMS114; type: cell-based; conditions: Homo sapiens, DMS-114, Lu
[35] = system: MKN28; assay: 39-cancer cell panel assay: MKN28; type: cell-based; conditions: Homo sapiens, MKN-28, St
[36] = system: OVCAR-4; assay: 39-cancer cell panel assay: OVCAR-4; type: cell-based; conditions: Homo sapiens, Ov
[37] = system: DU-145; assay: 39-cancer cell panel assay: DU-145; type: cell-based; conditions: Homo sapiens, Pro
[38] = read-out: IC50 (μM) HDF (24 h) Hypoxia nutrient (-), hypoxia (1% oxygen), nutrient (-)
[39] = read-out: IC50 (μM) HDF (24 h) Normoxia nutrient (+), normoxia, nutrient (+)
[40] = read-out: IC50 (μM) DLD-1 (24 h) Hypoxia nutrient (-), DLD-1, 24 h, hypoxia (1% oxygen), nutrient (-)
[41] = read-out: IC50 (μM) DLD-1 (24 h) Normoxia nutrient (+), DLD-1, 24 h, normoxia, nutrient (+)
[42] = DLD-1, 48 h, hypoxia (1% oxygen), nutrient (-), read-out: IC50 (μM) DLD-1 (48 h) Hypoxia nutrient (-)
[43] = DLD-1, 48 h, normoxia, nutrient (+), read-out: IC50 (μM) DLD-1 (48 h) Normoxia nutrient (+)

## CC(C)=CCC/C(C)=C/CC/C(C)=C/Cc1c(O)c(Cl)c(C)c(C=O)c1O [Compound 8]
[1]
  GI50: 0.61 µM
[2]; [38]
  IC50: 0.16 ± 0.023 µM
[2]; [39]
  IC50: 61 ± 5.3 µM
[3]
  GI50: 8.2 µM
[4]
  GI50: 16 µM
[5]
  GI50: 1.1 µM
[6]
  GI50: 0.93 µM
[7]
  GI50: 0.97 µM
[8]
  GI50: 1.9 µM
[9]
  GI50: 0.043 µM
[10]
  IC50: 0.12 ± 0.013 µM
[11]
  GI50: 16 µM
[12]
  GI50: 0.79 µM
[13]
  GI50: 13 µM
[14]
  IC50: 0.048 ± 0.001 µM
[15]
  GI50: 10 µM
[16]
  GI50: 0.46 µM
[17]
  GI50: 2.1 µM
[18]
  GI50: 1.3 µM
[19]
  inhibition at 5 µM: 8.2 ± 4.9%
[20]
  GI50: 11 µM
[21]
  GI50: 6.6 µM
[22]
  Inhibition (%) Complex I: 43 ± 1.8%
[23]
  inhibition at 5 µM: > 80%
[24]
  GI50: 1.1 µM
[25]
  GI50: 2.8 µM
[26]; DLD-1, 24 h, hypoxia nutrient-deprived, versus compound 1
  IC50 fold lower than 1: 20 fold
[26]; [40]
  IC50: 0.066 ± 0.042 µM
[26]; [41]
  IC50: 81 ± 24 µM
[26]; [42]
  IC50: 0.024 ± 0.003 µM
[26]; [43]
  IC50: 38 ± 3.3 µM
[26]; hypoxia and nutrient-deprived versus normal culture
  selectivity ratio, microenvironment versus normal culture condition: over 1000 fold
[27]
  GI50: 2.8 µM
[28]
  GI50: 0.45 µM
[29]
  GI50: 6.4 µM
[30]
  GI50 (μM) KM-12: 2.0 µM
[31]
  IC50: ~5 nM
[32]
  GI50: 37 µM
[33]
  GI50: 1.3 µM
[34]
  GI50: 2.5 µM
[35]
  GI50: 1.3 µM
[36]
  GI50: 13 µM
[37]
  GI50: 0.26 µM

## C/C(=C\Cc1c(O)c(Cl)c(C)c(C=O)c1O)CC/C=C(\C)[C@@H]1CC(=O)C(C)(C)O1 [Compound 1, ascofuranone]
[1]
  GI50: 2.8 µM
[2]; [38]
  IC50: 1.5 ± 0.18 µM
[2]; [39]
  IC50: > 100 µM
[3]
  GI50: 14 µM
[4]
  GI50: 23 µM
[5]
  GI50: 14 µM
[6]
  GI50: 7 µM
[7]
  GI50: 9.5 µM
[8]
  GI50: 8 µM
[9]
  GI50: 1.3 µM
[10]
  IC50: 13 ± 1.7 µM
[11]
  GI50: 28 µM
[12]
  GI50: 10 µM
[13]
  GI50: 16 µM
[14]
  IC50: 1.5 ± 0.04 µM
[15]
  GI50: 15 µM
[16]
  GI50: 5.1 µM
[17]
  GI50: 15 µM
[18]
  GI50: 9 µM
[19]
  inhibition at 5 µM: 1.5 ± 7.6%
[20]
  GI50: 12 µM
[21]
  GI50: 7.6 µM
[22]
  Inhibition (%) Complex I: 11 ± 5.8%
[23]
  inhibition at 5 µM: 36 ± 1.2%
[24]
  GI50: 6.6 µM
[25]
  GI50: 15 µM
[26]; [40]
  IC50: 1.2 ± 0.79 µM
[26]; [41]
  IC50: > 100 µM
[26]; [42]
  IC50: 0.24 ± 0.057 µM
[26]; [43]
  IC50: > 100 µM
[27]
  GI50: 7.4 µM
[28]
  GI50: 5.9 µM
[29]
  GI50: 10 µM
[30]
  GI50 (μM) KM-12: 9.3 µM
[31]
  IC50: 37.5 ± 12 nM
[32]
  GI50: 13 µM
[33]
  GI50: 5.3 µM
[34]
  GI50: 19 µM
[35]
  GI50: 9.7 µM
[36]
  GI50: 5.9 µM
[37]
  GI50: 11 µM
